According to paper PMC7997453 (Pharmaceuticals, 2021):
Read-outs that look alike come from different tables or passages of the source.

Columns and labels:
Caco-2 cell line = conditions: cited from earlier work; for Papp,caco-2,(pH 7.4:7.4): ref supplement 7
[1] = set-up: method as in PMID 25028625; conditions: cited from earlier work
[2] = set-up: method as in PMID 12676880; conditions: cited from earlier work
CYP3A4 [3] = target: T1, CYP3A4 (Homo sapiens, UniProt P08684); assay: Time-dependent inhibition (TDI) assay, testosterone-6β-hydroxylation, CYP3A5*3/*3 HLM; assay type: biochemical
Description: (§1) Testosterone-6β-hydroxylation was used to measure the activity of CYP3A4 and CYP3A5. […] With the corresponding double-reciprocal plot, the derived kinetic constants from the inactivation experiments were estimated.
(§2) Two-step incubation was performed to evaluate the TDI assay. […] After pre-incubation for 3 min at 37 °C in a shaking water bath, the enzymatic reaction was started upon adding NADPH (1 mM) with various pre-reaction time (0, 5, 10, 20, 30 min). For TDI on CYP3A5, NADPH (1 mM) was added to the incubation which contained CYP3A5*1/*3 HLM (0.5 mg/mL) and CYP3cide (1.2 μM) after being pre-warmed for 3 min. […] Next step, an aliquot (20 μL) of the primary pre-reaction mixture was transferred to 180 μL of the secondary incubation system which consisted of PBS (0.1 M), testosterone (200 μM) and NADPH (1 mM). The secondary reaction was incubated at 37 °C for 10 min and terminated by adding 400 μL ice-cold acetonitrile containing prednisolone as the internal standard (0.3150 μM for CYP3A5*3/*3 HLM incubation and 0.07875 μM for CYP3A5*1/*3 HLM incubation). […] The observed inactivation rate of the affected enzyme (kobs) was the negative slope of the linear regression. kinact and KI were calculated using Equation (1) by the double-reciprocal plot. I represents the concentration of the inhibitor. (1) kobs=kinact×I/[…]

CYP3A4 [4] = target: T1, CYP3A4; assay: Reversible inhibition (RI) assay on tacrolimus metabolism, CYP3A5*3/*3 HLM
Description: (§3) The reactions were started with the addition of nicotinamide adenine dinucleotide phosphate (NADPH, 1 mM) and stopped 10 min later upon adding a double volume of ice-cold methanol. […] Reactions were terminated with the same method as the CYP3A4 group. All incubations were carried out in triplicate. […] Dixon plots were used to analyze the inhibitory type of RI assay and Ki value.

[5] = octanol/water partition coefficient; assay type: physicochemical; conditions: In-house data
CYP3A5 [6] = target: T2, CYP3A5 (Homo sapiens, UniProt P20815); assay: Time-dependent inhibition (TDI) assay, testosterone-6β-hydroxylation, CYP3A5*1/*3 HLM with CYP3cide; assay type: biochemical
Description: as §1, §2

[7] = intrinsic clearance in human liver microsomes; assay type: in vitro ADME; conditions: In-house data, read-out: CLint,HLM
CYP3A = system: CYP3A; set-up: method as in PMID 15342469; conditions: cited from earlier work
CYP3A5 [8] = target: T2, CYP3A5; assay: Reversible inhibition (RI) assay on tacrolimus metabolism, CYP3A5*1/*3 HLM with CYP3cide
Description: as §3

[9] = cited from earlier work
[10] = set-up: method as in supplement 6; conditions: ref supplement 6; cited from earlier work
[11] = ref supplement 4; cited from earlier work
CYP3A5 [12] = conditions: cited from earlier work; for Km: unbound Michaelis constant
[13] = cited from earlier work; remark: listed apart in the source
[14] = set-up: method as in supplement 4; conditions: ref supplement 4; cited from earlier work
CYP3A4 [15] = system: CYP3A4; set-up: method as in earlier work; conditions: ref 3 (supplement ref 8), cited from earlier work; for Km: unbound Michaelis constant
[16] = set-up: method as in supplement 5; conditions: ref supplement 5; cited from earlier work
[17] = 0.125 μM STA, 0.2 μM tacrolimus
[18] = 0.125 μM STA, 0.4 μM tacrolimus
[19] = 0.125 μM STA, 0.8 μM tacrolimus
[20] = 0.125 μM STA, 1.6 μM tacrolimus
[21] = single oral dose 1 mg, CYP3A5 expressers
[22] = single oral dose 1 mg, CYP3A5 non-expressers
[23] = single oral dose 2 mg, CYP3A5 expressers
[24] = single oral dose 2 mg, CYP3A5 non-expressers
[25] = single oral dose 5 mg, CYP3A5 expressers
[26] = single oral dose 5 mg, CYP3A5 non-expressers

T2 sequence (P20815 whole entry): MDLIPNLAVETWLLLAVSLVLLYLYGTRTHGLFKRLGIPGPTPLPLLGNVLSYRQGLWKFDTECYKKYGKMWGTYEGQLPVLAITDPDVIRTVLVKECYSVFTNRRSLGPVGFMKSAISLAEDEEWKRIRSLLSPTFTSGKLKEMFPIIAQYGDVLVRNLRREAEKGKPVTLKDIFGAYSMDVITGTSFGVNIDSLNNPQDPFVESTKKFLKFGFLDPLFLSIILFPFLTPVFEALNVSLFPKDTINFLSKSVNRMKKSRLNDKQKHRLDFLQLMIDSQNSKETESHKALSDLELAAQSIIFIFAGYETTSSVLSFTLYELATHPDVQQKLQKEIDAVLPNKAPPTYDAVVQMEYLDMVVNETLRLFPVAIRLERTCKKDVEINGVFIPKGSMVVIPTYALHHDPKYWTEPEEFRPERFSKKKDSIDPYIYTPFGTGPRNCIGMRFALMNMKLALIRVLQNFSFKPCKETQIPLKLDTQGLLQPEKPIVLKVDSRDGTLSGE
T1 sequence (P08684 whole entry): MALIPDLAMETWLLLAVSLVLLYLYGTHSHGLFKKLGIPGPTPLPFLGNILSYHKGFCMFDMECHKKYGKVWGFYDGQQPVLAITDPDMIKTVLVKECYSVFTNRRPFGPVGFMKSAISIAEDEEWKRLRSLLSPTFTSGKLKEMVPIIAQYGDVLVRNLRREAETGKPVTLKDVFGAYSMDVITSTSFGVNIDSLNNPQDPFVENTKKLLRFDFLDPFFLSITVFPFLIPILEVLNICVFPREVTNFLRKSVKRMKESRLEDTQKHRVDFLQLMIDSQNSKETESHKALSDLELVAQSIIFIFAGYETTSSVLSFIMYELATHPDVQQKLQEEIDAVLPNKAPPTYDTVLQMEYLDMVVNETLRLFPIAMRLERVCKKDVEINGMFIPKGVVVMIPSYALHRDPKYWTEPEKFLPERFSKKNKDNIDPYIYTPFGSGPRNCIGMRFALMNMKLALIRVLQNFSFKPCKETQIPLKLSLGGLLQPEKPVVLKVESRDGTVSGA

Cc1ncc2n1-c1ccc(Cl)cc1C(c1ccccc1F)=NC2 [midazolam]
Papp,caco-2,(pH 7.4:7.4) (Caco-2 cell line): 32.4 ×10-6cm/s

Clc1ccccc1C(c1ccccc1)(c1ccccc1)n1ccnc1 [Clotrimazole]
inhibition on tacrolimus metabolism, CYP3A5 non-expresser patients versus expressers [1]: significantly greater inhibition

CC(=O)N1CCN(c2ccc(OCC3COC(Cn4ccnc4)(c4ccc(Cl)cc4Cl)O3)cc2)CC1 (stereo not drawn) [ketoconazole]
inhibition (tacrolimus level), CYP3A5 non-expressers versus expressers [2]: more significant inhibition

COc1cc2c(c(OC)c1OC)-c1c(cc3c(c1OC)OCO3)CC(C)C(C)(O)C2OC(=O)c1ccccc1 (stereo not drawn) [STA, schisantherin A]
TDI profile on CYP3A4 (in words) (CYP3A4 [3]): potent TDI
log of percentage of control activity, Figure 3A, Mean (CYP3A4 [3]; 0.25 μM STA, pre-incubation 0 min): 4.6010
log of percentage of control activity, Figure 3A, Mean (CYP3A4 [3]; 0.25 μM STA, pre-incubation 5 min): 4.4164
log of percentage of control activity, Figure 3A, Mean (CYP3A4 [3]; 0.25 μM STA, pre-incubation 10 min): 4.3386
log of percentage of control activity, Figure 3A, Mean (CYP3A4 [3]; 0.25 μM STA, pre-incubation 20 min): 4.2986
log of percentage of control activity, Figure 3A, Mean (CYP3A4 [3]; 0.25 μM STA, pre-incubation 30 min): 4.2407
log of percentage of control activity, Figure 3A, Mean (CYP3A4 [3]; 0.5 μM STA, pre-incubation 0 min): 4.6010
log of percentage of control activity, Figure 3A, Mean (CYP3A4 [3]; 0.5 μM STA, pre-incubation 5 min): 4.2393
log of percentage of control activity, Figure 3A, Mean (CYP3A4 [3]; 0.5 μM STA, pre-incubation 10 min): 4.0778
log of percentage of control activity, Figure 3A, Mean (CYP3A4 [3]; 0.5 μM STA, pre-incubation 20 min): 3.9359
log of percentage of control activity, Figure 3A, Mean (CYP3A4 [3]; 0.5 μM STA, pre-incubation 30 min): 3.9183
log of percentage of control activity, Figure 3A, Mean (CYP3A4 [3]; 1 μM STA, pre-incubation 0 min): 4.5902
log of percentage of control activity, Figure 3A, Mean (CYP3A4 [3]; 1 μM STA, pre-incubation 5 min): 4.1658
log of percentage of control activity, Figure 3A, Mean (CYP3A4 [3]; 1 μM STA, pre-incubation 10 min): 4.0515
log of percentage of control activity, Figure 3A, Mean (CYP3A4 [3]; 1 μM STA, pre-incubation 20 min): 3.8785
log of percentage of control activity, Figure 3A, Mean (CYP3A4 [3]; 1 μM STA, pre-incubation 30 min): 3.5554
log of percentage of control activity, Figure 3A, Mean (CYP3A4 [3]; 2 μM STA, pre-incubation 0 min): 4.6052
log of percentage of control activity, Figure 3A, Mean (CYP3A4 [3]; 2 μM STA, pre-incubation 5 min): 4.0322
log of percentage of control activity, Figure 3A, Mean (CYP3A4 [3]; 2 μM STA, pre-incubation 10 min): 3.5615
log of percentage of control activity, Figure 3A, Mean (CYP3A4 [3]; 2 μM STA, pre-incubation 20 min): 3.1694
log of percentage of control activity, Figure 3A, Mean (CYP3A4 [3]; 2 μM STA, pre-incubation 30 min): 3.0051
kinact/KI (CYP3A4 [3]; CYP3A4): 44.90 mL/min/µmol
KI (CYP3A4 [3]; CYP3A4, testosterone-6β-hydroxylation): 2.45 µM
kinact (CYP3A4 [3]; human, CYP3A5*3/*3 human liver microsomes, probe testosterone (200 μM), CYP3A4, testosterone-6β-hydroxylation): 0.00183 s⁻¹
Ki (CYP3A4 [4]): 150 nM
Dixon plot data point, Figure 2A, Mean (CYP3A4 [4]; [17]): 17.0000
Dixon plot data point, Figure 2A, Mean (CYP3A4 [4]; [18]): 9.0441
Dixon plot data point, Figure 2A, Mean (CYP3A4 [4]; [19]): 7.1353
Dixon plot data point, Figure 2A, Mean (CYP3A4 [4]; [20]): 2.6233
Dixon plot data point, Figure 2A, Mean (CYP3A4 [4]; 0.25 μM STA, 0.2 μM tacrolimus): 21.0000
Dixon plot data point, Figure 2A, Mean (CYP3A4 [4]; 0.25 μM STA, 0.4 μM tacrolimus): 14.8861
Dixon plot data point, Figure 2A, Mean (CYP3A4 [4]; 0.25 μM STA, 0.8 μM tacrolimus): 8.3071
Dixon plot data point, Figure 2A, Mean (CYP3A4 [4]; 0.25 μM STA, 1.6 μM tacrolimus): 3.9072
Dixon plot data point, Figure 2A, Mean (CYP3A4 [4]; 0.5 μM STA, 0.2 μM tacrolimus): 35.0000
Dixon plot data point, Figure 2A, Mean (CYP3A4 [4]; 0.5 μM STA, 0.4 μM tacrolimus): 23.9051
Dixon plot data point, Figure 2A, Mean (CYP3A4 [4]; 0.5 μM STA, 0.8 μM tacrolimus): 13.9244
Dixon plot data point, Figure 2A, Mean (CYP3A4 [4]; 0.5 μM STA, 1.6 μM tacrolimus): 5.0160
reversible inhibition on CYP3A4 (in words) (CYP3A4 [4]; CYP3A5*3/*3 HLM, substrate tacrolimus): competitive reversible inhibition
logP [5]: 1.7
Papp,caco-2 (Caco-2 cell line; ref supplement 3): 3.441e-05 cm/s
TDI profile on CYP3A5 (in words) (CYP3A5 [6]): not observed
microsomal CLint [7]: 24 µL/min/mg
KI (inactivation) (CYP3A; erythromycin N-demethylation, read-out: inhibitor concentration causing half-maximal inactivation (KI)): 399 nM
kinact/KI (CYP3A; erythromycin probe substrate): 230.6 mL/min/µmol
Ki (CYP3A; reversible inhibition of CYP3A, the substrate is erythromycin, read-out: inhibitory constant (Ki)): 49 nM
Ki (CYP3A5 [8]): 110 nM
Dixon plot data point, Figure 2B, Mean (CYP3A5 [8]; [17]): 15.0000
Dixon plot data point, Figure 2B, Mean (CYP3A5 [8]; [18]): 14.0109
Dixon plot data point, Figure 2B, Mean (CYP3A5 [8]; [19]): 7.5773
Dixon plot data point, Figure 2B, Mean (CYP3A5 [8]; [20]): 5.6992
Dixon plot data point, Figure 2B, Mean (CYP3A5 [8]; 0.25 μM STA, 0.2 μM tacrolimus): 23.2012
Dixon plot data point, Figure 2B, Mean (CYP3A5 [8]; 0.25 μM STA, 0.4 μM tacrolimus): 15.6487
Dixon plot data point, Figure 2B, Mean (CYP3A5 [8]; 0.25 μM STA, 0.8 μM tacrolimus): 12.0521
Dixon plot data point, Figure 2B, Mean (CYP3A5 [8]; 0.25 μM STA, 1.6 μM tacrolimus): 5.8700
Dixon plot data point, Figure 2B, Mean (CYP3A5 [8]; 0.5 μM STA, 0.2 μM tacrolimus): 30.8928
Dixon plot data point, Figure 2B, Mean (CYP3A5 [8]; 0.5 μM STA, 0.4 μM tacrolimus): 26.2841
Dixon plot data point, Figure 2B, Mean (CYP3A5 [8]; 0.5 μM STA, 0.8 μM tacrolimus): 14.9975
Dixon plot data point, Figure 2B, Mean (CYP3A5 [8]; 0.5 μM STA, 1.6 μM tacrolimus): 8.0120
reversible inhibition on CYP3A5 (in words) (CYP3A5 [8]; CYP3A5*1/*3 HLM with CYP3cide, substrate tacrolimus): competitive reversible inhibition
fu plasma ([9]; ref supplement 2): 0.083

C=CC[C@@H]1/C=C(\C)C[C@H](C)C[C@H](OC)[C@H]2O[C@@](O)(C(=O)C(=O)N3CCCC[C@H]3C(=O)O[C@H](/C(C)=C/[C@@H]3CC[C@@H](O)[C@H](OC)C3)[C@H](C)[C@@H](O)CC1=O)[C@H](C)C[C@@H]2OC [tacrolimus]
Intrinsic solubility [10]: 0.012 mg/mL
LogPo:w [11]: 3.26
CYP3A5 12-HT Vmax (CYP3A5 [12]; 12-hydroxy tacrolimus formation, ref 3 (supplement ref 8)): 1.4 pmol/min/pmol
CYP3A5 13-DMT Vmax (CYP3A5 [12]; 13-O-desmethyl tacrolimus formation, ref 3 (supplement ref 8)): 17 pmol/min/pmol
intrinsic clearance of tacrolimus by CYP3A5 versus CYP3A4 (CYP3A5 [12]; in vitro): more than two-fold faster
Km (CYP3A5 [12]; ref 3 (supplement ref 8), read-out: CYP3A5 12-HT Km,u): 350 nM
Km (CYP3A5 [12]; ref 3 (supplement ref 8), read-out: CYP3A5 13-DMT Km,u): 210 nM
AUC Obs (Observed) [13, 21]: 19.34 ng·h/mL
Cmax Obs (Observed) [13, 21]: 3.88 ng/mL
Tmax Obs (Observed) [13, 21]: 1.75 h
AUC Obs (Observed) [13, 22]: 30.34 ng·h/mL
Cmax Obs (Observed) [13, 22]: 5.52 ng/mL
Tmax Obs (Observed) [13, 22]: 1.5 h
AUC Obs (Observed) [13, 23]: 60.83 ng·h/mL
Cmax Obs (Observed) [13, 23]: 14.09 ng/mL
Tmax Obs (Observed) [13, 23]: 1.26 h
AUC Obs (Observed) [13, 24]: 119.02 ng·h/mL
Cmax Obs (Observed) [13, 24]: 24.28 ng/mL
Tmax Obs (Observed) [13, 24]: 1.35 h
AUC Obs (Observed) [13, 25]: 90.40 ng·h/mL
Cmax Obs (Observed) [13, 25]: 20.8 ng/mL
Tmax Obs (Observed) [13, 25]: 1.40 h
AUC Obs (Observed) [13, 26]: 134.77 ng·h/mL
Cmax Obs (Observed) [13, 26]: 27.90 ng/mL
Tmax Obs (Observed) [13, 26]: 1.30 h
B/P [14]: 35
Papp,caco-2,(pH 7.4:7.4) (Caco-2 cell line): 13.1 ×10-6cm/s
CYP3A4 12-HT Vmax (CYP3A4 [15]; 12-hydroxy tacrolimus formation): 0.6 pmol/min/pmol
CYP3A4 13-DMT Vmax (CYP3A4 [15]; 13-O-desmethyl tacrolimus formation): 8 pmol/min/pmol
Km (CYP3A4 [15]; read-out: CYP3A4 12-HT Km,u): 290 nM
Km (CYP3A4 [15]; read-out: CYP3A4 13-DMT Km,u): 210 nM
fu gut [16]: 1
fu plasma ([9]; ref supplement 4): 0.013
